# Patent US11786519B2, “Apoptosis-inducing agents for the treatment of cancer and immune and autoimmune diseases” (AbbVie Inc., priority 2011, dated 2023)
# Target: Bcl-xL (Homo sapiens, UniProt Q07817)
# Experiment: TR-FRET binding assay, competition with F-Bak for Bcl-xL
# Conditions: competition with F-Bak probe, GST-Bcl-xL
# Experimental: Determination of the utility of compounds having Formula (I) as binders to and inhibitors of anti-apoptotic Bcl-xL proteins was performed using the Time Resolved-Fluorescence Resonance Energy Transfer (TR-FRET) Assay. Tb-anti-GST antibody was purchased from Invitrogen (Catalog No. PV4216).
# The measurement of competition of compounds of the invention with F-Bak for a Bcl-2 family protein (Bcl-xL) binding site using a Time Resolved Fluorescence Resonance Energy Transfer (TR-FRET) binding assay:
# Test compounds were serially diluted in DMSO starting at 50 µM (2× starting concentration; 10% DMSO) and 10 μL transferred into a 384-well plate.
# The samples are then mixed on a shaker for 1 minute then incubated for an additional 2 hours at room temperature. For each assay plate, a probe/antibody and protein/antibody/probe mixture were included as a negative and a positive control, respectively. Fluorescence was measured on the ENVISION plate reader (Perkin Elmer) using a 340/35 nm excitation filter and 520/525 (F-Bak) and 495/510 nm ([…]) emission filters. Dissociation constants (Ki) were determined using Wang's equation (Wang, Z. X. An exact mathematical expression for describing competitive binding of two different ligands to a protein molecule. FEBS Lett. 1995 360:111-114). The TR-FRET assay can be performed in the presence of varying concentrations of human serum (HS) or fetal bovine serum (FBS).
# Sequence of Bcl-xL (Q07817 whole entry): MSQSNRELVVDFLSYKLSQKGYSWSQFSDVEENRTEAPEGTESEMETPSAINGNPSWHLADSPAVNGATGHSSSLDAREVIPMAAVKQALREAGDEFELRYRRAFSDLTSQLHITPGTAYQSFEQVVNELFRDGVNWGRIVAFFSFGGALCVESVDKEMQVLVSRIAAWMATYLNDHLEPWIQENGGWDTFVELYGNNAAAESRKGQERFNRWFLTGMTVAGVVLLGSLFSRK
row,SMILES,Ki [nM]
1,"Cc1c(-c2ccc(N3CCc4cccc(C(=O)Nc5nc6ccccc6s5)c4C3)nc2C(=O)O)cc(C#N)n1CCC12CC3CC(CC(C3)C1)C2 [Example 34, 6-[8-(1,3-benzothiazol-2-ylcarbamoyl)-3,4-dihydroisoquinolin-2(1H)-yl]-3-{5-cyano-2-methyl-1-[2-(tricyclo[3.3.1.1^3,7]dec-1-yl)ethyl]-1H-pyrrol-3-yl}pyridine-2-carboxylic acid]",0.4
2,"Cc1c(-c2ccc(N3CCc4cccc(C(=O)Nc5cn6ccncc6n5)c4C3)nc2C(=O)O)cnn1CC12CC3CC(CC(C3)C1)C2 [Example 73, 6-[8-(imidazo[1,2-a]pyrazin-2-ylcarbamoyl)-3,4-dihydroisoquinolin-2(1H)-yl]-3-[5-methyl-1-(tricyclo[3.3.1.1^3,7]dec-1-ylmethyl)-1H-pyrazol-4-yl]pyridine-2-carboxylic acid]",< 0.1
3,"COC12CC3CC(CC(Cn4c(C#N)cc(-c5ccc(N6CCc7cccc(C(=O)Nc8nc9ccccc9s8)c7C6)nc5C(=O)O)c4C)(C3)C1)C2 [Example 58, 6-[8-(1,3-benzothiazol-2-ylcarbamoyl)-3,4-dihydroisoquinolin-2(1H)-yl]-3-(5-cyano-1-{[3-methoxytricyclo[3.3.1.1^3,7]dec-1-yl]methyl}-2-methyl-1H-pyrrol-3-yl)pyridine-2-carboxylic acid]",< 0.1
4,"Cc1c(-c2ccc(N3CCc4cccc(C(=O)Nc5nc6ccccc6s5)c4C3)nc2C(=O)O)ccnc1OCC12CC3CC(CC(C3)C1)C2 [Example 27, 6-[8-(1,3-benzothiazol-2-ylcarbamoyl)-3,4-dihydroisoquinolin-2(1H)-yl]-3′-methyl-2′-(tricyclo[3.3.1.1^3,7]dec-1-ylmethoxy)-3,4′-bipyridine-2-carboxylic acid]",0.1
5,"CNCCOCCOCCOC12CC3CC(CC(Cn4ncc(-c5ccc(N6CCc7cccc(C(=O)Nc8nc9ccccc9s8)c7C6)nc5C(=O)O)c4C)(C3)C1)C2 [Example 83, 6-[8-(1,3-benzothiazol-2-ylcarbamoyl)-3,4-dihydroisoquinolin-2(1H)-yl]-3-(5-methyl-1-{[3-(2-{2-[2-(methylamino)ethoxy]ethoxy}ethoxy)tricyclo[3.3.1.1^3,7]dec-1-yl]methyl}-1H-pyrazol-4-yl)pyridine-2-carboxylic acid]",< 0.1
6,"O=C(Nc1nc2ccccc2s1)c1cccc2c1CN(c1ccc(-c3cnn(CC45CC6CC(CC(C6)O4)C5)c3)c(C(=O)O)n1)CC2 [Example 13, 6-[8-(1,3-benzothiazol-2-ylcarbamoyl)-3,4-dihydroisoquinolin-2(1H)-yl]-3-[1-(2-oxatricyclo[3.3.1.1^3,7]dec-1-ylmethyl)-1H-pyrazol-4-yl]pyridine-2-carboxylic acid]",< 0.1
7,"COCCC1(Cn2cc(-c3ccc(N4CCc5cccc(C(=O)Nc6nc7ccccc7s6)c5C4)nc3C(=O)O)cn2)C2CC3CC(C2)CC1C3 (stereo not shown) [Example 56, 6-[8-(1,3-benzothiazol-2-ylcarbamoyl)-3,4-dihydroisoquinolin-2(1H)-yl]-3-(1-{[2-(2-methoxyethyl)tricyclo[3.3.1.1^3,7]dec-2-yl]methyl}-1H-pyrazol-4-yl)pyridine-2-carboxylic acid]",< 0.1
8,"N#Cc1c(NC23CC4CC(CC(C4)C2)C3)cccc1-c1ccc(N2CCc3cccc(C(=O)Nc4nc5ccccc5s4)c3C2)nc1C(=O)O [Example 47, 6-[8-(1,3-benzothiazol-2-ylcarbamoyl)-3,4-dihydroisoquinolin-2(1H)-yl]-3-{2-cyano-3-[tricyclo[3.3.1.1^3,7]dec-1-ylamino]phenyl}pyridine-2-carboxylic acid]",0.2
9,"Cc1c(-c2ccc(N3CCc4cccc(C(=O)Nc5nc6ccccc6s5)c4C3)nc2C(=O)O)ccnc1N(C)C1CCCCCCC1 [Example 61, 6-[8-(1,3-benzothiazol-2-ylcarbamoyl)-3,4-dihydroisoquinolin-2(1H)-yl]-2′-[cyclooctyl(methyl)amino]-3′-methyl-3,4′-bipyridine-2-carboxylic acid]",< 0.1
10,"Cc1c(-c2ccc(N3CCc4cccc(C(=O)Nc5nc6ncccc6s5)c4C3)nc2C(=O)O)cnn1CC12CC3CC(CC(C3)C1)C2 [Example 30, 3-[5-methyl-1-(tricyclo[3.3.1.1^3,7]dec-1-ylmethyl)-1H-pyrazol-4-yl]-6-[8-([1,3]thiazolo[4,5-b]pyridin-2-ylcarbamoyl)-3,4-dihydroisoquinolin-2(1H)-yl]pyridine-2-carboxylic acid]",< 0.1
11,"Cc1c(-c2ccc(N3CCc4cccc(C(=O)Nc5nc6ccccc6s5)c4C3)nc2C(=O)O)cnn1CC12CC3CC(C1)CC(S(C)(=O)=O)(C3)C2 [Example 81, 6-[8-(1,3-benzothiazol-2-ylcarbamoyl)-3,4-dihydroisoquinolin-2(1H)-yl]-3-(5-methyl-1-{[3-(methylsulfonyl)tricyclo[3.3.1.1^3,7]dec-1-yl]methyl}-1H-pyrazol-4-yl)pyridine-2-carboxylic acid]",< 0.1
12,"COC12CC3CC(CC(Cn4ncc(-c5ccc(N6CCc7cccc(C(=O)Nc8nc9ccccc9s8)c7C6)nc5C(=O)NS(=O)(=O)N5CCOCC5)c4C)(C3)C1)C2 [Example 39, N-(1,3-benzothiazol-2-yl)-2-{5-(1-{[3-methoxytricyclo[3.3.1.1^3,7]dec-1-yl]methyl}-5-methyl-1H-pyrazol-4-yl)-6-[(morpholin-4-ylsulfonyl)carbamoyl]pyridin-2-yl}-1,2,3,4-tetrahydroisoquinoline-8-carboxamide]",12
13,"COC12CC3CC(CC(Cn4ncc(-c5ccc(N6CCc7cccc(C(=O)Nc8nc9ccccc9s8)c7C6)nc5C(=O)NS(=O)(=O)C5CC5)c4C)(C3)C1)C2 [Example 41, N-(1,3-benzothiazol-2-yl)-2-{6-[(cyclopropylsulfonyl)carbamoyl]-5-(1-{[3-methoxytricyclo[3.3.1.1^3,7]dec-1-yl]methyl}-5-methyl-1H-pyrazol-4-yl)pyridin-2-yl}-1,2,3,4-tetrahydroisoquinoline-8-carboxamide]",< 0.1
14,"Cc1c(OCC23CC4CC(CC(C4)C2)C3)cccc1-c1ccc(N2CCc3cccc(C(=O)Nc4nc5ccccc5s4)c3C2)nc1C(=O)O [Example 21, 6-[8-(1,3-benzothiazol-2-ylcarbamoyl)-3,4-dihydroisoquinolin-2(1H)-yl]-3-{2-methyl-3-[tricyclo[3.3.1.1^3,7]dec-1-ylmethoxy]phenyl}pyridine-2-carboxylic acid]",0.6
15,"Cc1c(-c2ccc(N3CCc4cccc(C(=O)Nc5nc6ccccc6s5)c4C3)nc2C(=O)O)cccc1S(=O)(=O)NC12CC3CC(CC(C3)C1)C2 [Example 51, 6-[8-(1,3-benzothiazol-2-ylcarbamoyl)-3,4-dihydroisoquinolin-2(1H)-yl]-3-{2-methyl-3-[tricyclo[3.3.1.1^3,7]dec-1-ylsulfamoyl]phenyl}pyridine-2-carboxylic acid]",0.3
16,"Cc1c(-c2ccc(N3CCc4cccc(C(=O)Nc5nc6ccccc6s5)c4C3)nc2C(=O)O)cccc1N(C)CC12CC3CC(CC(C3)C1)C2 [Example 55, 6-[8-(1,3-benzothiazol-2-ylcarbamoyl)-3,4-dihydroisoquinolin-2(1H)-yl]-3-(2-methyl-3-{methyl[tricyclo[3.3.1.1^3,7]dec-1-ylmethyl]amino}phenyl)pyridine-2-carboxylic acid]",0.4
